According to article PMC3466204 (PLoS ONE, 2012):
Where “and” joins values, the source holds several entries; their conditions need not be identical. Equal values may be shown once. Ends that are not written are not given here.

Key:
B. cereus DPC 6088 = assay: Broth MIC, Gram positive; assay type: cell-based, Bacillus cereus; details: broth microtitre, BSA pre-treated plates, 10^5 cfu ml^−1, 2-fold dilutions from 10 µM, 16 h 37°C, purified peptide, mean of triplicate assays
Protocol: (§1) Minimum inhibitory concentration determinations for Gram positive organisms were carried out in triplicate in microtitre plates (Sarstedt). 96 well microtitre plates were pre-treated with bovine serum albumin (BSA) prior to addition of the peptides. Briefly, to each well of the microtitre plate 200 µL of phosphate buffered saline (PBS) containing 1% (w/v) bovine serum albumin (PBS/BSA) was added and incubated at 37°C for 30 min. The wells were washed with 200 µL PBS and allowed to dry. Target strains were grown overnight in the appropriate conditions and medium, subcultured into fresh broth and allowed to grow to an OD600 of ∼0.5, diluted to a final concentration of 10^5 cfu ml^−1 in a volume of 0.2 ml. Wild type nisin and nisin mutant peptides were adjusted to a 10 µM (S. mitis, B. cereus), 7.5 µM (L. monocytogenes), 5 µM (hVISA) 2.5 µM (MRSA, E. durans), or 500 nM (L. lactis strains) starting concentration and 2-fold serial dilutions of each peptide were added to the target strain.

B. cereus DPC 6089 = assay: Broth MIC, Gram positive; assay type: cell-based, Bacillus cereus; details: broth microtitre, BSA pre-treated plates, 10^5 cfu ml^−1, 2-fold dilutions from 10 µM, 16 h 37°C, purified peptide, mean of triplicate assays
Protocol: as §1

E. coli 0157-H7 [1] = assay: Broth MIC, Gram negative; assay type: cell-based; details: cells washed in 10 mM SPB pH 7.4, 2×10^5 CFU/mL, 2 h RT with peptide, then double strength LB, RT overnight, mean of triplicate assays
Protocol: (§2) Minimum inhibitory concentration determinations for Gram negative strains were carried out in triplicate in 96 well microtitre plates. Briefly, bacteria (E. coli, C. sakazakii and Salmonella) grown to mid-logarithmic phase were harvested by centrifugation, washed with 10 mM SPB at pH 7.4, and diluted to 2×10^5 colony-forming units (CFU)/mL in SPB. Nisin and nisin derivative peptides were resuspended in sterile HPLC water and 50 µL aliquots were added to wells containing 50 µL of 2×10^5 CFU of bacteria. Plates were incubated at RT for two hours with agitation. Double strength Luria–Bertani (LB) broth (100 µL) was added and the plates were incubated at RT overnight, the MIC was taken as the lowest concentration at which growth was inhibited.

[2] = tested on: Salmonella enterica serovar Typhimurium UK1; assay: Broth MIC, Gram negative; assay type: cell-based; details: cells washed in 10 mM SPB pH 7.4, 2×10^5 CFU/mL, 2 h RT with peptide, then double strength LB, RT overnight, mean of triplicate assays
Protocol: as §2

L. lactis HP = assay: Broth MIC, Gram positive; assay type: cell-based; details: broth microtitre, BSA pre-treated plates, 10^5 cfu ml^−1, 2-fold dilutions from 500 nM, 16 h, purified peptide, mean of triplicate assays
Protocol: as §1

S. aureus RF122 = assay: Broth MIC, Gram positive; assay type: cell-based; details: broth microtitre, BSA pre-treated plates, 10^5 cfu ml^−1, 2-fold dilutions, 16 h 37°C, purified peptide, mean of triplicate assays
Protocol: as §1

S. mitis UCC5000 = assay: Broth MIC, Gram positive; assay type: cell-based, Streptococcus mitis; details: broth microtitre, BSA pre-treated plates, 10^5 cfu ml^−1, 2-fold dilutions from 10 µM, 16 h 37°C, purified peptide, mean of triplicate assays
Protocol: as §1

C. sakazakii DPC 6440 [3] = assay: Agarose gel diffusion assay, purified peptide; assay type: cell-based, Cronobacter sakazakii; details: purified peptide 60 µM; for Zone of inhibition, agarose gel diffusion: C. sakazakii DPC 6440, mean of triplicate assays; for Zone as % wt: C. sakazakii DPC 6440, relative to nisin A
Protocol: (§3) Agarose-based deferred antagonism assays were carried out as follows: GM17/LB (0.03%) underlay was prepared with 10 mM sodium phosphate buffer (SPB) at pH 7.4 to which was added agarose (1% w/v agarose), autoclaved and cooled to 50°C. Bacteria grown to mid-logarithmic phase were harvested by centrifugation and washed with 10 mM SPB at pH 7.4. Bacteria were then added to 15 mls cooled underlay medium to reach a concentration of 2×10^7 colony-forming units (CFU)/mL. The inoculated medium was rapidly transferred into sterile Petri plates, allowed to solidify and dried. Wells (4.6 mm in diameter) were then made in the seeded plates. 10 µl volumes of cell-free supernatant from overnight nisin derivative producing cultures or resuspended purified peptides were then added to the wells and the plates incubated at 30°C (L. lactis) or 37°C (Gram positive strains) or RT (Gram negative strains) for 3 hours. Polymyxin B (Sigma Aldrich) was used at a concentration of 20 µg/ml. The plates were then overlaid with 15 mls of autoclaved double strength GM17 (L. lactis) or LB (Gram negatives) agarose (1% w/v agarose) overlay medium precooled to 50°C. The plates were then incubated overnight at the relevant temperature.

E. coli 0157-H7 [4] = assay: Agarose gel diffusion assay, purified peptide; assay type: cell-based; details: purified peptide 60 µM; for Zone of inhibition, agarose gel diffusion: E. coli 0157-H7, mean of triplicate assays; for Zone as % wt: E. coli 0157-H7, relative to nisin A
Protocol: as §3

[5] = tested on: Salmonella enterica serovar Typhimurium UK1; assay: Agarose gel diffusion assay, purified peptide; assay type: cell-based; details: purified peptide 60 µM; for Zone of inhibition, agarose gel diffusion: Salmonella Typhimurium UK1, mean of triplicate assays; for Zone as % wt: Salmonella Typhimurium UK1, relative to nisin A
Protocol: as §3

C. sakazakii DPC 6440 [6] = assay: Broth MIC, Gram negative; assay type: cell-based, Cronobacter sakazakii; details: cells washed in 10 mM SPB pH 7.4, 2×10^5 CFU/mL, 2 h RT with peptide, then double strength LB, RT overnight, mean of triplicate assays
Protocol: as §2

E. durans 5133 = assay: Broth MIC, Gram positive; assay type: cell-based, Enterococcus durans; details: broth microtitre, BSA pre-treated plates, 10^5 cfu ml^−1, 2-fold dilutions from 2.5 µM, 16 h 37°C, purified peptide, mean of triplicate assays
Protocol: as §1

L. monocytogenes 10403S = assay: Broth MIC, Gram positive; assay type: cell-based; details: broth microtitre, BSA pre-treated plates, 10^5 cfu ml^−1, 2-fold dilutions from 7.5 µM, 16 h 37°C, purified peptide, mean of triplicate assays
Protocol: as §1

[7] = tested on: ST 528 (Methicillin resistant S. aureus); assay: Broth MIC, Gram positive; assay type: cell-based; details: broth microtitre, BSA pre-treated plates, 10^5 cfu ml^−1, 2-fold dilutions from 2.5 µM, 16 h 37°C, purified peptide, mean of triplicate assays
Protocol: as §1

L. lactis MG1363 = assay: Broth MIC, Gram positive; assay type: cell-based; details: broth microtitre, BSA pre-treated plates, 10^5 cfu ml^−1, 2-fold dilutions from 500 nM, 16 h, purified peptide, mean of triplicate assays
Protocol: as §1

L. monocytogenes LO28 = assay: Broth MIC, Gram positive; assay type: cell-based; details: broth microtitre, BSA pre-treated plates, 10^5 cfu ml^−1, 2-fold dilutions from 7.5 µM, 16 h 37°C, purified peptide, mean of triplicate assays
Protocol: as §1

[8] = tested on: ST 530 (Methicillin resistant S. aureus); assay: Broth MIC, Gram positive; assay type: cell-based; details: broth microtitre, BSA pre-treated plates, 10^5 cfu ml^−1, 2-fold dilutions from 2.5 µM, 16 h 37°C, purified peptide, mean of triplicate assays
Protocol: as §1

[9] = tested on: hVISA 32679 (heterogenous Vancomycin-intermediate S. aureus); assay: Broth MIC, Gram positive; assay type: cell-based; details: broth microtitre, BSA pre-treated plates, 10^5 cfu ml^−1, 2-fold dilutions from 5 µM, 16 h 37°C, purified peptide, mean of triplicate assays
Protocol: as §1

Lactococcus lactis HP = assay: Agarose-based assay of cell-free supernatants of S29X producing strains; details: for Zone Diameter (mm): agarose (1%) GM17 assay, 10 µl cell-free supernatant of overnight producing culture in 4.6 mm wells, L. lactis HP, 30°C; for % difference (zone relative to wild type): agarose assay of supernatants against L. lactis HP, wild type serine = 100
Protocol: as §3

Substance | MIC (B. cereus DPC 6088) | MIC (B. cereus DPC 6089) | MIC (E. coli 0157-H7 [1]) | MIC [2] | MIC (L. lactis HP) | MIC (S. aureus RF122) | MIC (S. mitis UCC5000) | Zone of inhibition, agarose gel diffusion (C. sakazakii DPC 6440 [3]) [mm] | Zone as % wt (C. sakazakii DPC 6440 [3]) [% wt] | Zone of inhibition, agarose gel diffusion (E. coli 0157-H7 [4]) [mm] | Zone as % wt (E. coli 0157-H7 [4]) [% wt] | Zone of inhibition, agarose gel diffusion [5] [mm] | Zone as % wt [5] [% wt] | MIC (C. sakazakii DPC 6440 [6]) | MIC (E. durans 5133) | MIC (L. monocytogenes 10403S) | MIC [7] | MIC (L. lactis MG1363) | MIC (L. monocytogenes LO28) | MIC [8] | also measured
M21K: M21K hinge derivative of nisin A, generated and purified for comparison (ITSISLCTPGCKTGALMGCNKKTATCHCSIHVSK; thioether (positions not given here); not fully specified (residues 2, 5, 33, bridges); UniProt P13068 24-57, looked up, variant M21K) | 16.76 mg/L and 5.0 µM | 16.76 mg/L and 5.0 µM | 25.14 mg/L and 7.5 µM | 50.28 mg/L and 15 µM | 0.2 mg/L and 0.062 µM | 1.04 mg/L and 0.312 µM | 8.38 mg/L and 2.5 µM | 10.51±0.10 | 108 | 10.80±0.01 | 110 | 10.75±0.12 | 109 | 6.28 mg/L and 1.875 µM | 0.52 mg/L and 0.156 µM |  |  |  |  |  | 
S29E: bioengineered nisin A derivative, serine 29 replaced by glutamic acid (ITSISLCTPGCKTGALMGCNMKTATCHCEIHVSK; not fully specified (residues 2, 5, 33, bridges); cysteine pairing not given here; UniProt P13068 24-57, looked up, variant S29E) | 4.19 mg/L and 1.25 µM | 4.19 mg/L and 1.25 µM | 25.14 mg/L and 7.5 µM | 50.28 mg/L and 15 µM | 0.05 mg/L and 0.015 µM | 2 mg/L and 0.625 µM | 4.19 mg/L | 7.98±0.29 | 81 | 10.54±0.19 | 107 | 10.77±0.07 | 109 | 12.57 mg/L and 3.75 µM | 0.52 mg/L and 0.156 µM | 12.57 mg/L and 3.75 µM | 0.52 mg/L | 0.8 mg/L and 0.250 µM | 6.28 mg/L and 1.875 µM | 0.52 mg/L | MIC [9]: 4.19 mg/L and 1.25 µM; Zone Diameter (mm) (Lactococcus lactis HP): 18.6±0.3 mm; % difference (zone relative to wild type) (Lactococcus lactis HP): 122 (0.0004) %
S29D: bioengineered nisin A derivative, serine 29 replaced by aspartic acid (ITSISLCTPGCKTGALMGCNMKTATCHCDIHVSK; thioether (positions not given here); not fully specified (residues 2, 5, 33, bridges); UniProt P13068 24-57, looked up, variant S29D) | 16.76 mg/L and 5.0 µM | 8.38 mg/L and 2.5 µM | > 100 mg/L and > 30 µM | > 100 mg/L and > 30 µM | 0.05 mg/L and 0.015 µM | 4.19 mg/L and 1.25 µM | 16.76 mg/L and 5.0 µM | 10.10±0.19 | 103 | 8.27±0.08 | 84 | 8.22±0.16 | 83 | 6.28 mg/L and 1.875 µM | 0.52 mg/L and 0.156 µM | 12.57 mg/L and 3.75 µM | 0.26 mg/L and 0.078 µM | 0.4 mg/L and 0.125 µM | 12.57 mg/L and 3.75 µM | 0.52 mg/L and 0.156 µM | MIC [9]: 4.19 mg/L and 1.25 µM; Zone Diameter (mm) (Lactococcus lactis HP): 20.3±0.8 mm; % difference (zone relative to wild type) (Lactococcus lactis HP): 133 (0.006) %
